Patent US20250017888A1, “COMPOUNDS FOR TREATING DISEASES ASSOCIATED WITH HYALURONAN OVERPRODUCTION” (THE ROYAL VETERINARY COLLEGE, priority 2021, published 2025)

What was measured:
fibroblasts = test: Alamar blue staining of fibroblasts; format: cell-based; conditions: Fibroblast
Protocol: (§1) The hyaluronan synthase activity (Prehm, P. and Schumacher, U., Biochem. Pharmacol. 2004, 68, 1401-1410), the cytotoxicity of the drugs (O'Brien, J. et al., Eur. J. Biochem. 2000, 267, 5421-5426), proteoglycan synthesis rate, hyaluronan (Prehm, P. J. Rheumatol., 2005, 32, 690-696) and proteoglycan (Bjornsson, S. Anal. Biochem. 1993, 210, 282-291) were determined as described. The effect of the prenylflavonoids on the MRP5 export rate was measured with fluorescein diacetate as described (Schulz, T., Schumacher, U., and Prehm, P., J Biol. Chem., 2007, 282, 20999-21004). The determination of the IC50 values on the phosphodiesterase 5 was performed according to the instructions of BPS Bioscience. The culture of bovine chondrocytes in alginate beads and of explants of bovine cartilage was described previously (Deiters, B. and Prehm, P. Arthritis Res. Ther., 2008, 10, R8; Prehm, P. J. Rheumatol. 2005, 32, 690-696). Osteoarthritic reactions were induced in chondrocytes growing in alginate beads by incubation with medium containing 10 ng/ml of II-17 for 6 days, and in cartilage explants with 10 ng/ml of II-17 and 5 ng/ml of II-1α. The supernatants were withdrawn and stored at −20° C. for later analysis. The explants were weighed and extracted with 1 ml of 4 M guanidinium-HCl for 72 hours at 4° C. The proteoglycan concentrations were determined in the extracts.

[1] = Alamar blue toxicity assay (FIG. 1); format: cell-based; conditions: below concentrations of 100 μM
Protocol: as §1
The toxicity was determined by the Alamar blue assay.

chondrosarcoma cells = test: Uptake of flavonoids into chondrosarcoma cells by intracellular fluorescence; format: cell-based; conditions: concentration dependence, FIG. 2A
Protocol: Confluent monolayers of chondrosarcoma cells on 96 well microtiter plates were incubated with 100 μM solutions of flavonoids in serum-free Quantum medium. Changes in fluorescence were monitored from the bottom of the wells at excitation and emission wavelengths of 340 nm and 450 nm for xanthohumol and at 440 nm and 530 nm for quercetin, respectively.
Flavonoids are weakly fluorescent in aqueous buffer, but greatly enhance the fluorescence in the presence of proteins (Sengupta, B. and Sengupta, P. K., Biochem. Biophys. Res. Commun., 2002, 299, 400-403). This property was used to follow the uptake of quercetin and xanthohumol into chondrosarcoma cells.

Str/ort mice = test: Gait analysis (treadmill, Digigait) in Str/ort mice; format: in vivo, mouse
Protocol: At 10-13 weeks of age, 21 male Str/ort mice (n=7/group) were assigned randomly to vehicle, hylin-betaine and xantho-betaine groups and were treated intraperitoneally 18 weeks with either vehicle (5% DMSO in 95% peanut oil), 50 mg/kg compound of Example 1 (“hylin-betaine”) in 5% DMSO and 95% peanut oil or 50 mg/kg compound of Example 2 (“xantho-betaine”) in 5% DMSO and 95% peanut oil.
Gait was monitored using a treadmill-based video system (DigigaitTM system) in three treatment groups of mice at three time point, week 1, week 9 and week 18 of treatment. The number of mice was 7, 7 and 5 in groups 1, 2 and 3, respectively.
[…] gait descriptors were used for the analyses. Thirty-four descriptors were obtained directly from the software of the system in the 4 limbs (LF: left front; RF: right front; LR: left rear; RR: right rear). All the others (143) were calculated indexes from gait measurements including swing, stance, brake, propel and stride times, stride length, frequency and coefficient of variation, paw area and paw angle and the variability of those two traits, the coefficient of variation of swing duration mid line distance, and minimum and maximum dAdT. The ratios of times were calculated in the 4 limbs: Brake, Propel, and Swing times relative to Stance and Stride times, Stance/Swing and Stance/Stride. In addition, the following additional indexes were considered:
In order to investigate whether there were differences among groups for each descriptor at the three experimental dates, an ANOVA was performed using data corresponding to each descriptor and date. Bonferroni correction was applied to counteract the problem of multiple comparisons.
A t-test analysis was also performed comparing only two groups at a time. In order to assess whether differences between both groups could be due to differences in gait change regarding the initial condition (at 2014/12/23), two sets of analyses were performed for data at 2015/02/18 and 2015/04/14, respectively by using Logistic Regression Analysis. The model included two independent variables: the initial value for each descriptor and the difference between the corresponding value at 2015/02/18 (or 2015/04/14) and the initial value. Bonferroni correction was also applied.

[2] = system: bovine cartilage explants; test: Proteoglycan loss from interleukin activated bovine cartilage explants; format: cell-based
Protocol: Cartilage explants were weighed (average wet weight: 20 mg) incubated in the absence and presence of IL-1 (2 ng/ml) and the inhibitors at various concentrations for 5 days. The tissues were extracted with 1.5 ml of a solution of 4 M guanidinium hydrochloride, 0.1 M ε-aminohexanoid acid, 5 mM benzamidine, 10 mM N-ethylmaleinimide, 0.5 mM phenylmethylsulfonyl fluoride for 3 days at 4° C. The solution was centrifuged for 5 min at 10.000 g and the proteoglycans were determined in the supernatant by the alcian blue method as described (Bjornsson, S., Anal. Biochem., 1993, 210, 282-291).
Bovine cartilage explants were incubated in the absence and presence of interleukin for stimulation of osteoarthritic reactions and the indicated concentrations of the xanthohumol-betaine (FIG. 6A), xanthohumol-prothiazole (FIG. 6B), quercetin-prothiazole (FIG. 6C), quercetin (FIG. 6D) and xanthohumol (FIG. 6E) for 5 days. The cartilage explants were weighed and the proteoglycan concentrations were determined in the cartilage explants (solid bars) and culture supernatants (open bars).

[3] = 50 mg/kg intraperitoneally, 18 weeks

COc1cc(O)c(CC=C(C)C)c(O)c1C(=O)/C=C/c1ccc(OC(=O)C[N+](C)(C)C)cc1.[Cl-] [Xantho-betaine, (E)-2-(4-(3-(2,4-dihydroxy-6-methoxy-3-(3-methylbut-2-en-1-yl)phenyl)-3-oxoprop-1-en-1-yl)phenoxy)-N,N,N-trimethyl-2-oxoethanaminium chloride]
IC50 (fibroblasts): 80 µM | toxicity in Alamar blue assay [1]: not toxic | uptake into chondrosarcoma cells (intracellular fluorescence) (chondrosarcoma cells): taken up in a concentration dependent manner | mice that refused to run (drop-out) during the gait studies (Str/ort mice; [3]): 2 mice | percentage of drop-out regarding the total number of runs (Str/ort mice; [3]): 13.3% | distribution of gait data (runs) by treatment group (Str/ort mice; 2014 Dec. 23): 4 | distribution of gait data (runs) by treatment group (Str/ort mice; 2015 Apr. 14): 5 | distribution of gait data (runs) by treatment group (Str/ort mice; 2015 Feb. 18): 4 | effect on all gait descriptors (Str/ort mice; any time point, compared with vehicle group): no significant effect | IC50 ([2]; Bos taurus, read-out: IC50 Inhibition of proteoglycan loss): 0.3 µM | inhibition of proteoglycan loss (protective effect) ([2]; interleukin stimulated, 5 days): similarly effective
